# From the NIST ThermoML archive (doi:10.1016/j.tca.2015.11.010)
# ± gives the expanded uncertainty stated by the source.
# Test: activity coefficient (dimensionless); of the first substance listed, at infinite dilution; xn = mol fraction of the nth substance listed
# Settings: 298.15 K; 238 kPa; Liquid; Chromatography; x1 = 0
row,SMILES,activity coefficient
1,"Cc1ccccc1C [1,2-dimethylbenzene] + CNC=O",9.8 ± 1.1
2,"Cc1cccc(C)c1 [1,3-dimethylbenzene] + CNC=O",10.8 ± 0.7
3,"Cc1ccc(C)cc1 [1,4-dimethylbenzene] + CNC=O",10.4 ± 0.9
4,"C=CCCCCC=C [1,7-octadiene] + CNC=O",23 ± 2.1
5,Cc1ccc(C(C)C)cc1 [1-(1-methylethyl)-4-methylbenzene] + CNC=O,22.3 ± 2.1
6,C=CC1CC=CCC1 (centres undefined) [4-ethenylcyclohexene] + CNC=O,16.6 ± 1.9
7,c1ccccc1 [benzene] + CNC=O,4.8 ± 0.4
8,Brc1ccccc1 [bromobenzene] + CNC=O,6.3 ± 0.5
9,Clc1ccccc1 [chlorobenzene] + CNC=O,5.2 ± 0.6
10,C1CCCCCCC1 [cyclooctane] + CNC=O,42.3 ± 3.3
11,CCCCCCCCCC [decane] + CNC=O,194 ± 9.1
12,Fc1ccccc1 [fluorobenzene] + CNC=O,4 ± 0.3
13,CCCCCCC [heptane] + CNC=O,60.5 ± 4.8
14,CCCCCC [hexane] + CNC=O,38.6 ± 7.5
15,c1ccc2ccccc2c1 [naphthalene] + CNC=O,26.7 ± 3.7
16,CCCCCCCCC [nonane] + CNC=O,122 ± 6.3
17,CCCCCCCC [octane] + CNC=O,83.9 ± 4.5
18,Cc1ccccc1 [toluene] + CNC=O,7 ± 0.6
19,CCCCCCCCCCC [undecane] + CNC=O,318 ± 32
